Literature values as cited in US20230078230A1, “METHODS FOR THE PRODUCTION OF COMMITTED CARDIAC PROGENITOR CELLS” (FUJIFILM Cellular Dynamics, Inc., priority 2021, published 2023).

Assays:
[1] = system: pluripotent stem cell-derived cardiomyocytes
ROCK1/ROCK2 = conditions: ROCK1/ROCK2, competing with ATP

| Structure (SMILES) | effect on contractile activity [1] | IC50 (ROCK1/ROCK2) [µM] |
| --- | --- | --- |
| CC(C)NCC(O)c1ccc(O)c(O)c1 (stereo not shown) [isoprenaline] | positive chronotropic effect | – |
| COc1ccc([C@@H]2Sc3ccccc3N(CCN(C)C)C(=O)[C@@H]2OC(C)=O)cc1 [diltiazem] | inhibits contractile activity in a dose-dependent manner | – |
| C[C@@H](N)[C@H]1CC[C@H](C(=O)Nc2ccncc2)CC1 [Y-27632] | – | 0.8 |
| CNC[C@H](O)c1cccc(O)c1 [phenylephrine] | positive chronotropic effect | – |
